# According to article PMC4640066 (Nature Communications, 2015):
# Columns and labels:
# [1] = test system: γ-tubulin-dependent, centrosome-induced aster formation; assay: Centrosome (sperm nuclei)-induced aster formation in Xenopus egg extracts; type: biochemical; conditions: Xenopus extracts with sperm nuclei, 30 min at 20 °C
# Description: Cytostatic factor (CSF)-arrested M phase Xenopus egg extracts (CSF extracts) were prepared. Briefly, unfertilized eggs were crushed by 10,700g centrifugation for 20 min. M phase extracts were mixed with 0.5 μM Cy3-labelled α/β-tubulin and various concentrations of compounds. After incubation for 30 min on ice, 15 μM RanQ69L, 200 sperm nuclei per μl or 5% DMSO were added and incubated for 30 min on ice. […]
# (a) The efficiency of γ-tubulin depletion in Xenopus extracts was confirmed by immunoblotting. […] The depletion efficiency was calculated with ImageJ and was approx. 80%. […]
# Scale bars, 5 μm. […] Aster formation was analyzed by fluorescence microscopy. […] Asters (Fig. 1e and Supplementary Figure 4c) in 10 randomly selected fields were counted per slide with a 10× objective; each sample had four slides. […]
# Error bars represent S.D. Two-tailed, paired Student’s t-test was used to obtain P values. […] (e) Quantification of the radius of RanQ69L-induced asters from Fig. 1e and Supplementary Figure 4c. To gauge the impact upon the radius of the asters, n = 20 asters were quantified per sample per experiment. […]
# HeLa cells [2] = assay: Analysis of interphase MT network; type: cell-based, human; conditions: 100 μM, 2.5 h
# Description: HeLa cells were cultured in DMEM containing 10% FBS in a humidified atmosphere containing 5% CO2. After treatment with each compound for 2.5 h (interphase MT network) or 5 h (mitotic spindle), the cells were immediately fixed with cold MeOH (−20 °C). After blocking with PBS containing 0.5% bovine serum albumin, cells were incubated with anti-α-tubulin antibodies (1:500 dilution, Santa Cruz, Cat# sc-32293) to observe interphase cells, or with anti-BubR1 (1:250 dilution, BD Bioscience, Cat# 612502) and anti-α-tubulin (1:250 dilution, MBL, Cat# PM054) antibodies to observe mitotic spindle. After staining with Alexa^488-conjugated anti-mouse IgG (1:2,000 dilution, Invitrogen, Cat#A11001) and Alexa568-conjugated anti-rabbit IgG (1:2000 dilution, Invitrogen, Cat#A11011), cells were washed four times with PBS and mounted with PBS containing 0.1 μg ml^−1 DAPI. MTs and BubR1 signals were observed under a Leica LAS AF 6000 fluorescence microscope (Leica Microsystems) or an LSM 700 laser-scanning confocal microscope (Zeiss).
# HeLa cells [3] = assay: Spindle length of MG132-arrested metaphase cells; type: cell-based, human; conditions: 30 μM, 2 h in the presence of MG132, HeLa
# Description: Exponentially growing HeLa cells were treated with 30 μM of gatastatin for 9 h. Cells were fixed with cold MeOH (−20 °C). Immunostaining was performed as described above using anti-α-tubulin (1:250 dilution, Santa Cruz, Cat# sc-32293) and anti-pericentrin (1:250 dilution, Abcam, Cat# ab4448) antibodies. After staining with Alexa^488-conjugated anti-mouse IgG (1:2,000 dilution, Invitrogen, Cat#A11001) and Alexa^568-conjugated anti-rabbit IgG (1:2,000 dilution, Invitrogen, Cat#A11011), cells were washed four times with PBS and mounted with PBS containing 0.1 μg ml^−1 DAPI. Spindle structure was observed under a Leica LAS AF 6000 fluorescence microscope (Leica Microsystems). Images of 41 sections at 0.251-μm intervals were collected. The position of the two pericentrin signals of mitotic cells was analysed using the ImageJ software, and then their distance was calculated.
# For analysis of the length of the bipolar spindle in MG132-treated cells, HeLa cells were arrested at prometaphase with 10 μM of STLC for 15 h, followed by STLC removal by washing the cells with the medium three times to remove STLC. […]
# Immunostaining was performed as described above using anti-α-tubulin (1:250 dilution, Santa Cruz, Cat# sc-32293) and anti-pericentrin (1:250 dilution, Abcam, Cat# ab4448) antibodies. Spindle structure was observed under a Leica LAS AF 6000 fluorescence microscope (Leica Microsystems). […]
smiles,measurement,setting,value
"COc1cc2c(=O)c(-c3cc(OC)c4c(c3OC)OCO4)coc2cc1OCc1ccccc1 [Gatastatin, O^7-demethylbenzyl AG1]",Effect on centrosome-induced aster formation,[1],nearly completely inhibited
same,Effect on interphase MT network,HeLa cells [2],did not obviously change the appearance of the interphase MT network
same,Reduction of the length of the metaphase spindle compared with the control,HeLa cells [3],22%
